Data on 7 compounds can be found in US6518243B1, “Desleucyl glycopeptide antibiotics and methods of making same” (Trustees of Princeton University, priority 1999, dated 2003).

Common to all, as to format: cell-based
In one assay the test system is E. faecalis ATCC 29212. Nature of the assay: MIC determination in BHI media, OD600. Conditions: BHI + 0.1% casamino acids, 18 hours at 37° C., ≧90% OD600 inhibition. The essentials: (§1)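 Log-phase bacteria were diluted to about 5×10^5 CFU/ml and exposed to test compounds serially diluted in DMSO. Following 18 hours at 37° C, growth was read by plate absorbance to assign the MIC.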

Another assay has as its system S aureus ATCC 29213. Nature of the assay: MIC determination in BHI media, OD600. Conditions: BHI + 0.1% casamino acids, 18 hours at 37° C., ≧90% OD600 inhibition. The essentials: as §1
The next assay relates to S. Aureus ATCC 33591. Nature of the assay: MIC determination in BHI media, OD600. To be noted: BHI + 0.1% casamino acids, 18 hours at 37° C., ≧90% OD600 inhibition. The essentials: as §1
In a further assay the test system is E. faecium ATCC 49624. Nature of the assay: MIC determination in BHI media, OD600. To be noted: BHI + 0.1% casamino acids, 18 hours at 37° C., ≧90% OD600 inhibition. The essentials:
as §1

In a further assay the test system is E. faecalis (CL 4877). Nature of the assay: Zone of inhibition screen, 96 well agar array format. On the set-up: scale not given here. To be noted: zone of inhibition relative to 1 mg/ml stock solution of p-chlorobiphenylvancomycin. In outline: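 Each compound was tested for antibacterial activity against a shared bacterial panel, with screening carried out on agar in a 96-well array.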

Structures are written as SMILES.

Take `CSCC[C@@H](N)C(=O)N[C@H]1C(=O)N[C@@H](CC(N)=O)C(=O)N[C@H]2C(=O)N[C@H]3C(=O)N[C@H](C(=O)N[C@@H](C(=O)O)c4cc(O)cc(O)c4-c4cc3ccc4O)[C@H](O)c3ccc(c(Cl)c3)Oc3cc2cc(c3O[C@@H]2O[C@H](CO)[C@@H](O)[C@H](O)[C@H]2O[C@@H]2C[C@@](C)(NCc3ccc(-c4ccc(Cl)cc4)cc3)[C@@H](O)[C@@H](C)O2)Oc2ccc(cc2Cl)[C@H]1O` [Compound 15]: the MIC E. faecalis ATCC 29212 with E. faecalis ATCC 29212 is 0.25 µg/mL. Besides, the MIC S. aureus ATCC 29213 in the assay with S aureus ATCC 29213 was 0.25 µg/mL. In the assay on S. Aureus ATCC 33591, the MIC S. aureus ATCC 33591 came to 0.12 µg/mL. Further, in the assay with E. faecium ATCC 49624, the MIC E. faecium ATCC 49624 was 0.12 µg/mL. For the same compound, in the assay with E. faecalis (CL 4877), the “zone score, E. faecalis CL 4877” value is reported as 2.
In the case of `CCCC(N)C(=O)NC1C(=O)NC(CC(N)=O)C(=O)NC2C(=O)NC3C(=O)NC(C(=O)NC(C(=O)O)c4cc(O)cc(O)c4-c4cc3ccc4O)C(O)c3ccc(c(Cl)c3)Oc3cc2cc(c3OC2OC(CO)C(O)C(O)C2OC2CC(C)(NCc3ccc(-c4ccc(Cl)cc4)cc3)C(O)C(C)O2)Oc2ccc(cc2Cl)C1O` (centres unmarked) [Compound 337], the MIC E. faecalis ATCC 29212 in the assay on E. faecalis ATCC 29212 turned out to be 0.25 µg/mL. Further, the MIC S. aureus ATCC 29213 with S aureus ATCC 29213 turned out to be 0.12 µg/mL. Moreover, in the assay on S. Aureus ATCC 33591, the MIC S. aureus ATCC 33591 was 0.12 µg/mL. Also, the MIC E. faecium ATCC 49624 in the assay with E. faecium ATCC 49624 is 0.062 µg/mL.
Consider `CC(C)C(N)C(=O)NC1C(=O)NC(CC(N)=O)C(=O)NC2C(=O)NC3C(=O)NC(C(=O)NC(C(=O)O)c4cc(O)cc(O)c4-c4cc3ccc4O)C(O)c3ccc(c(Cl)c3)Oc3cc2cc(c3OC2OC(CO)C(O)C(O)C2OC2CC(C)(NCc3ccc(-c4ccc(Cl)cc4)cc3)C(O)C(C)O2)Oc2ccc(cc2Cl)C1O` (centres unmarked) [Compound 339], for which, in the assay with E. faecalis ATCC 29212, the MIC E. faecalis ATCC 29212 was 0.25 µg/mL. Further, in the assay with S aureus ATCC 29213, the MIC S. aureus ATCC 29213 came out at 0.25 µg/mL. Further, the MIC S. aureus ATCC 33591 in the assay with S. Aureus ATCC 33591 stood at 0.25 µg/mL. Moreover, the MIC E. faecium ATCC 49624 in the assay on E. faecium ATCC 49624 is 0.12 µg/mL.
For the compound `CNC(CC(C)C)C(=O)NC1C(=O)NC(CC(N)=O)C(=O)NC2C(=O)NC3C(=O)NC(C(=O)NC(C(=O)O)c4cc(O)cc(O)c4-c4cc3ccc4O)C(O)c3ccc(c(Cl)c3)Oc3cc2cc(c3OC2OC(CO)C(O)C(O)C2OC2CC(C)(NCc3ccc(-c4ccc(Cl)cc4)cc3)C(O)C(C)O2)Oc2ccc(cc2Cl)C1O` (centres unmarked) [Compound 517, Cl-Biphenyl Vancomycin, reference compound], the MIC E. faecalis ATCC 29212 in the assay on E. faecalis ATCC 29212 was 0.25 µg/mL. For the same compound, the MIC S. aureus ATCC 29213 with S aureus ATCC 29213 stood at 0.25 µg/mL. Moreover, the MIC S. aureus ATCC 33591 in the assay on S. Aureus ATCC 33591 was determined as 0.25 µg/mL. Moreover, the MIC E. faecium ATCC 49624 in the assay on E. faecium ATCC 49624 came out at 0.062 µg/mL.
For `CNC(CC(C)C)C(=O)NC1C(=O)NC(CC(N)=O)C(=O)NC2C(=O)NC3C(=O)NC(C(=O)NC(C(=O)O)c4cc(O)cc(O)c4-c4cc3ccc4O)C(O)c3ccc(c(Cl)c3)Oc3cc2cc(c3OC2OC(CI)C(O)C(O)C2OC2CC(C)(NCc3ccc(-c4ccc(Cl)cc4)cc3)C(O)C(C)O2)Oc2ccc(cc2Cl)C1O` (centres unmarked) [Compound 520], the MIC E. faecalis ATCC 29212 with E. faecalis ATCC 29212 was 0.78 µg/mL. Besides, the MIC S. aureus ATCC 29213 in the assay with S aureus ATCC 29213 came to 0.78 µg/mL. The MIC S. aureus ATCC 33591 in the assay on S. Aureus ATCC 33591 worked out at 0.78 µg/mL. For the same compound, in the assay on E. faecium ATCC 49624, the MIC E. faecium ATCC 49624 turned out to be 0.12 µg/mL.
On to `CC1OC(OC2C(Oc3c4cc5cc3Oc3ccc(cc3Cl)C(O)C3NC(=O)C(NC(=O)C5NC(=O)C(CC(N)=O)NC(=O)C(NC(=O)C(N)COC(C)(C)C)C(O)c5ccc(c(Cl)c5)O4)c4ccc(O)c(c4)-c4c(O)cc(O)cc4C(C(=O)O)NC3=O)OC(CN)C(O)C2O)CC(C)(NCc2ccc(-c3ccc(Cl)cc3)cc2)C1O` (centres unmarked) [Compound 521], for which, in the assay with E. faecalis ATCC 29212, the MIC E. faecalis ATCC 29212 was found to be 0.78 µg/mL. For the same compound, in the assay with S aureus ATCC 29213, the MIC S. aureus ATCC 29213 was determined as 0.78 µg/mL. The MIC S. aureus ATCC 33591 with S. Aureus ATCC 33591 worked out at 0.78 µg/mL. For the same compound, the MIC E. faecium ATCC 49624 in the assay on E. faecium ATCC 49624 worked out at 0.12 µg/mL.
For `CNC(CC(C)C)C(=O)NC1C(=O)NC(CC(N)=O)C(=O)NC2C(=O)NC3C(=O)NC(C(=O)NC(C(=O)O)c4cc(O)cc(O)c4-c4cc3ccc4O)C(O)c3ccc(c(Cl)c3)Oc3cc2cc(c3OC2OC(CN)C(O)C(O)C2OC2CC(C)(NCc3ccc(-c4ccc(Cl)cc4)cc3)C(O)C(C)O2)Oc2ccc(cc2Cl)C1O` (centres unmarked) [Compound 523], the MIC E. faecalis ATCC 29212 in the assay on E. faecalis ATCC 29212 was determined as 0.25 µg/mL. Further, the MIC S. aureus ATCC 29213 in the assay with S aureus ATCC 29213 came to 0.78 µg/mL. Further, in the assay on S. Aureus ATCC 33591, the MIC S. aureus ATCC 33591 is 0.39 µg/mL. In the assay on E. faecium ATCC 49624, the MIC E. faecium ATCC 49624 is 0.12 µg/mL.
